{
  "source": "ChEMBL document CHEMBL3526091",
  "about": "“Pharmacokinetics, metabolism, and excretion of the glycogen synthase kinase-3 inhibitor LY2090314 in rats, dogs, and humans: a case study in rapid clearance by extensive metabolism with low circulating metabolite exposure” (Drug Metab Dispos, 2013)",
  "key": {"[1]": {"experiment": "AUC (0 to infinity) in cancer patient at 40 mg for 60 mins treated 1/1 cycle/day", "assay_type": "ADME, organism-based", "set-up": "dose 40 mg, time infinity, dosed compound name LY2090314", "conditions": "human, plasma"}, "[2]": {"species_on_record": "Homo sapiens", "experiment": "Drug recovery in cancer patient at 80 to 120 mg for 60 mins", "assay_type": "ADME, organism-based", "set-up": "dosed compound name LY2090314", "conditions": "in vivo, 1 h"}, "[3]": {"experiment": "Drug recovery in bile duct-intact beagle dog assessed as radioactivity in feces during 0 to 48 hrs at 5 mg/kg, iv administered for 30 mins", "assay_type": "ADME, organism-based, Canis lupus familiaris", "set-up": "dose 5 mg/kg, dosed compound name [14C]LY2090314, route intravenous", "conditions": "in vivo"}, "[4]": {"experiment": "Drug recovery in bile duct-cannulated Sprague-Dawley rat feces at 5 mg/kg, iv administered for 30 mins during 0 to 168 hrs time interval by radio analysis", "assay_type": "ADME, organism-based", "set-up": "dose 5 mg/kg, dosed compound name [14C]LY2090314, route intravenous", "conditions": "in vivo"}, "[5]": {"experiment": "Tmax in cancer patient at 20 mg for 60 mins treated 1/1 cycle/day", "assay_type": "ADME, organism-based", "set-up": "dosed compound name LY2090314", "conditions": "human, in vivo"}, "[6]": {"tested_on": "Canis familiaris", "experiment": "AUC (0 to infinity) in beagle dog assessed as total radioactivity at 5 mg/kg, iv administered for 30 mins", "assay_type": "ADME, organism-based, Canis lupus familiaris, Plasma", "set-up": "dose 5 mg/kg, dosed compound name [14C]LY2090314, route intravenous, time infinity", "conditions": "in vivo, 0.5 h"}, "[7]": {"experiment": "Tmax in cancer patient at 10 mg for 60 mins treated 2/1 cycle/day", "assay_type": "ADME, organism-based", "set-up": "dosed compound name LY2090314", "conditions": "human, in vivo"}, "[8]": {"tested_on": "Canis familiaris", "experiment": "Total drug recovery in beagle dog at 5 mg/kg, iv administered for 30 mins during 0 to 24 hrs time interval by radio analysis", "assay_type": "ADME, organism-based, Canis lupus familiaris", "set-up": "dose 5 mg/kg, dosed compound name [14C]LY2090314, route intravenous", "conditions": "in vivo"}, "[9]": {"experiment": "Tmax in cancer patient at 80 mg for 60 mins treated 1/8 cycle/day", "assay_type": "ADME, organism-based", "set-up": "dosed compound name LY2090314", "conditions": "human, in vivo"}, "[10]": {"experiment": "AUC (0 to infinity) in Sprague-Dawley rat at 5 mg/kg, iv administered for 30 mins", "assay_type": "ADME, organism-based", "set-up": "time infinity, dose 5 mg/kg, dosed compound name [14C]LY2090314, route intravenous", "conditions": "plasma"}, "[11]": {"tested_on": "Canis familiaris", "experiment": "Clearance in beagle dog assessed as total radioactivity at 5 mg/kg, iv administered for 30 mins", "assay_type": "ADME, organism-based, Canis lupus familiaris", "set-up": "dose 5 mg/kg, dosed compound name [14C]LY2090314, route intravenous", "conditions": "in vivo, 0.5 h"}, "[12]": {"experiment": "AUC (0 to infinity) in cancer patient at 10 mg for 60 mins treated 1/1 cycle/day", "assay_type": "ADME, organism-based", "set-up": "dose 10 mg, time infinity, dosed compound name LY2090314", "conditions": "human, plasma"}, "[13]": {"experiment": "Cmax in cancer patient at 10 mg for 60 mins treated 2/1 cycle/day", "assay_type": "ADME, organism-based", "set-up": "dose 10 mg, dosed compound name LY2090314", "conditions": "human, in vivo"}, "[14]": {"experiment": "Drug recovery in beagle dog feces at 5 mg/kg, iv administered for 30 mins during 0 to 24 hrs time interval by radio analysis", "assay_type": "ADME, organism-based, Canis lupus familiaris", "set-up": "dose 5 mg/kg, dosed compound name [14C]LY2090314, route intravenous", "conditions": "in vivo"}, "[15]": {"experiment": "Tmax in cancer patient at 120 mg for 60 mins treated 1/8 cycle/day", "assay_type": "ADME, organism-based", "set-up": "dosed compound name LY2090314", "conditions": "human, in vivo"}, "[16]": {"experiment": "Clearance in cancer patient at 40 mg for 60 mins treated 1/1 cycle/day", "assay_type": "ADME, organism-based", "set-up": "dosed compound name LY2090314", "conditions": "human, in vivo"}, "[17]": {"experiment": "Tmax in cancer patient at 40 mg for 60 mins treated 1/1 cycle/day", "assay_type": "ADME, organism-based", "set-up": "dosed compound name LY2090314", "conditions": "human, in vivo"}, "[18]": {"experiment": "Drug metabolism in Bcrp knockout Sprague-Dawley rat bile at 5 mg/kg, iv administered for 30 mins", "assay_type": "ADME, organism-based", "set-up": "dose 5 mg/kg, dosed compound name LY2090314, route intravenous", "conditions": "in vivo, 0.5 h"}, "[19]": {"tested_on": "Rattus norvegicus", "experiment": "Tmax in Sprague-Dawley rat assessed as total radioactivity at 5 mg/kg, iv administered for 30 mins", "assay_type": "ADME, organism-based", "set-up": "dose 5 mg/kg, dosed compound name [14C]LY2090314, route intravenous", "conditions": "in vivo, 0.5 h"}, "[20]": {"experiment": "Volume of distribution at steady state in cancer patient at 20 mg for 60 mins treated 1/1 cycle/day", "assay_type": "ADME, organism-based", "set-up": "dosed compound name LY2090314", "conditions": "human, in vivo, read-out: Vdss"}, "[21]": {"experiment": "Drug recovery in bile duct-cannulated Sprague-Dawley rat bile at 5 mg/kg, iv administered for 30 mins during 0 to 12 hrs time interval by radio analysis", "assay_type": "ADME, organism-based", "set-up": "dose 5 mg/kg, dosed compound name [14C]LY2090314, route intravenous", "conditions": "in vivo"}, "[22]": {"experiment": "Tmax in cancer patient at 20 mg for 60 mins treated 2/1 cycle/day", "assay_type": "ADME, organism-based", "set-up": "dosed compound name LY2090314", "conditions": "human, in vivo"}, "[23]": {"experiment": "Drug recovery in bile duct-cannulated Sprague-Dawley rat cage/carcass at 5 mg/kg, iv administered for 30 mins during 0 to 168 hrs time interval by radio analysis", "assay_type": "ADME, organism-based", "set-up": "dose 5 mg/kg, dosed compound name [14C]LY2090314, route intravenous", "conditions": "in vivo"}, "[24]": {"tested_on": "Rattus norvegicus", "experiment": "Drug recovery in Sprague-Dawley rat cage at 5 mg/kg, iv administered for 30 mins during 0 to 24 hrs time interval by radio analysis", "assay_type": "ADME, organism-based", "set-up": "dose 5 mg/kg, dosed compound name [14C]LY2090314, route intravenous", "conditions": "in vivo"}, "[25]": {"experiment": "Clearance in cancer patient at 40 mg for 60 mins treated 1/8 cycle/day", "assay_type": "ADME, organism-based", "set-up": "dosed compound name LY2090314", "conditions": "human, in vivo"}, "[26]": {"tested_on": "Plasma", "experiment": "Plasma concentration in beagle dog at Tmax", "assay_type": "ADME, cell-free, Canis lupus familiaris", "set-up": "dosed compound name [14C]LY2090314"}, "[27]": {"experiment": "AUC (0 to infinity) in cancer patient at 120 mg for 60 mins treated 1/1 cycle/day", "assay_type": "ADME, organism-based", "set-up": "dose 120 mg, time infinity, dosed compound name LY2090314", "conditions": "human, plasma"}},
  "data": [
    {"smiles": "O=C1NC(=O)C(c2cnc3ccccn23)=C1c1cn2c3c(cc(F)cc13)CN(C(=O)N1CCCCC1)CC2", "note": "[LY-2090314]", "values": [
      {"measurement": "AUC(0-inf)", "setting": "[1]", "result": 976, "unit": "ng·h/mL"},
      {"measurement": "Compound recovery", "setting": "[2]", "result": 1.6, "unit": "%"},
      {"measurement": "Radiolabel recovery", "setting": "[3]", "result": 4.1, "unit": "%"},
      {"measurement": "Radiolabel recovery", "setting": "[4]", "result": 6.75, "unit": "%"},
      {"measurement": "Tmax", "setting": "[5]", "result": 58.8, "unit": "min"},
      {"measurement": "AUC", "setting": "[6]", "result": 15067, "unit": "ng·h/mL"},
      {"measurement": "Tmax", "setting": "[7]", "result": 55.2, "unit": "min"},
      {"measurement": "Radiolabel recovery", "setting": "[8]", "result": 61.5, "unit": "%"},
      {"measurement": "Tmax", "setting": "[9]", "result": 58.8, "unit": "min"},
      {"measurement": "AUC(0-inf)", "setting": "[10]", "result": 1260, "unit": "ng·h/mL"},
      {"measurement": "CL", "setting": "[11]", "result": 5.62, "unit": "mL/min/kg"},
      {"measurement": "AUC(0-inf)", "setting": "[12]", "result": 216, "unit": "ng·h/mL"},
      {"measurement": "Cmax", "setting": "[13]", "result": 106, "unit": "ng/mL"},
      {"measurement": "Radiolabel recovery", "setting": "[14]", "result": 39.8, "unit": "%"},
      {"measurement": "Tmax", "setting": "[15]", "result": 30, "unit": "min"},
      {"measurement": "clearance", "setting": "[16]", "result": 688, "unit": "mL/min"},
      {"measurement": "Tmax", "setting": "[17]", "result": 58.8, "unit": "min"},
      {"measurement": "Drug metabolism", "setting": "[18]", "result": "metabolite_detected"},
      {"measurement": "Tmax", "setting": "[19]", "result": 30, "unit": "min"},
      {"measurement": "Vd", "setting": "[20]", "result": 77.5, "unit": "L"},
      {"measurement": "Radiolabel recovery", "setting": "[21]", "result": 85.2, "unit": "%"},
      {"measurement": "Tmax", "setting": "[22]", "result": 45, "unit": "min"},
      {"measurement": "Radiolabel recovery", "setting": "[23]", "result": 0.31, "unit": "%"},
      {"measurement": "Radiolabel recovery", "setting": "[24]", "result": 0.07, "unit": "%"},
      {"measurement": "clearance", "setting": "[25]", "result": 710, "unit": "mL/min"},
      {"measurement": "Compound recovery", "setting": "[26]", "result": 82.8, "unit": "%"},
      {"measurement": "AUC(0-inf)", "setting": "[27]", "result": 3310, "unit": "ng·h/mL"}
    ]}
  ]
}
